Results reported in patent US20240199618A1, “NOVEL N-ACYL-[3-SUBSTITUTED]-[8-SUBSTITUTED]-5,6-DIHYDRO-[1,2,4]TRIAZOLO[4,3-a]PYRAZINES AS SELECTIVE NK-3 RECEPTOR ANTAGONISTS, PHARMACEUTICAL COMPOSITION, METHODS FOR USE IN NK-3 RECEPTOR-MEDIATED DISORDERS” (Ogeda SA, priority 2013, published 2024).
Where two headings read alike, the source gives them in different places.

What was measured:
human NK-1 receptor = human NK-1 receptor (Homo sapiens (Human), UniProt P25103); experiment: Selectivity assay: [3H] substance P binding, human NK-1 receptor; details: 2 nM [3H] substance P, CHO membranes; read-out: hNK-1 (Ki)
Procedure: Selectivity of the compounds of the invention was determined over the other human NK receptors, namely NK-1 and NK-2 receptors.
The affinity of compounds of the invention for the NK-1 receptor was evaluated in CHO recombinant cells which express the human NK-1 receptor. Membrane suspensions were prepared from these cells. The following radioligand: [^3H] substance P (PerkinElmer Cat #NET111520) was used in this assay. Binding assays were performed in a 50 mM Tris/5 mM MnCl2/150 mM NaCl/0.1% BSA at pH 7.4. Binding assays consisted of 25 μl of membrane suspension (approximately 5 μg of protein/well in a 96 well plate), 50 μl of compound or reference ligand (Substance P) at increasing concentrations (diluted in assay buffer) and 2 nM [^3H] substance P. The plate was incubated 60 min at 25° C. in a water bath and then filtered over GF/C filters (Perkin Elmer, 6005174, presoaked in 0.5% PEI for 2 h at room temperature) with a Filtration unit (Perkin Elmer). The radioactivity retained on the filters was measured by using the TopCount-NXT reader (Packard).

human NK-3 receptor [1] = molecular target: T1, human NK-3 receptor (Homo sapiens (Human), UniProt P29371); experiment: 3H-SB222200 binding competition assay with human NK-3 receptor
Procedure: The affinity of compounds of the invention for the human NK-3 receptor was determined by measuring the ability of compounds of the invention to competitively and reversibly displace a well-characterized NK-3 radioligand in a concentration-dependent manner.
^3H-SB222200 Binding Competition Assay with Human NK-3 Receptor
Membranes were prepared from Chinese hamster ovary recombinant cells stably expressing the human NK-3 receptor. The membranes were incubated with 5 nM ^3H-SB222200 (ARC) in a HEPES 25 mM/NaCl 0.1M/CaCl2 1 mM/MgCl2 5 mM/BSA 0.5%/Saponin 10 μg/ml buffer at pH 7.4 and various concentrations of compounds of the invention. The amount of ^3H-SB222200 bound to the receptor was determined after filtration by the quantification of membrane associated radioactivity using the TopCount-NXT reader (Packard).

plasma protein = experiment: Determination of plasma protein binding (equilibrium dialysis, RED); assay type: in vitro ADME; details: 4 hours at 37° C.
From the text: Determination of plasma protein binding The pharmacokinetic and pharmacodynamic properties of chemicals/drugs are largely a function of the reversible binding of chemicals to plasma or serum proteins. […] Consequently, the extent of the plasma protein binding (PPB) of a compound influences its action as well as its distribution and elimination.
The determination of plasma protein binding (PPB) of a compound is enabled by equilibrium dialysis, an accepted and standard method for reliable estimation of the non-bound drug fraction in plasma. RED (Rapid Equilibrium Dialysis) device insert is made of two side-by-side chambers separated by an O-ring-sealed vertical cylinder of dialysis membrane (MWCO ˜8,000). […] After 4 hours incubation at 37° C. under shaking, an aliquot is removed from each chamber and analyzed by a LC-MS/MS procedure enables the determination of both free and bound drug.
The “free fraction” may be calculated as 100%−% rPPB (i.e. the complementary percentage of that disclosed in Table 4, corresponding to the drug concentration that is unbound and therefore available to engage biological target and elicit pharmacological activity).

human NK-2 receptor = human NK-2 receptor (Homo sapiens (Human), UniProt P21452); experiment: Selectivity assay: [125I]-Neurokinin A binding, human NK-2 receptor; details: 0.1 nM [125I]-Neurokinin A, CHO membranes; read-out: hNK-2 (Ki)
Procedure: The affinity of compounds of the invention for the NK-2 receptor was evaluated in CHO recombinant cells which express the human NK-2 receptor. Membrane suspensions were prepared from these cells. […] Binding assays were performed in a 25 mM HEPES/1 mM CaCl2)/5 mM MgCl2/0.5% BSA/10 μg/ml saponin, at pH 7.4. […] The radioactivity retained on the filters was measured by using the TopCount-NXT reader (Packard).

human NK-3 receptor [2] = molecular target: T1, human NK-3 receptor; experiment: Aequorin functional assay with human NK-3 receptor (antagonist testing vs NKA); assay type: cell-based; details: CHO cells, NKA at EC80 (3 nM); read-out: Functional assay: Aequorin assay with human NK-3 receptor hNK-3-AEQ (antagonist IC50)
Procedure: Aequorin Assay with Human NK-3 Receptor
Changes in intracellular calcium levels are a recognized indicator of G protein-coupled receptor activity. The efficacy of compounds of the invention to inhibit NKA-mediated NK-3 receptor activation was assessed by an in vitro Aequorin functional assay. Chinese Hamster Ovary recombinant cells expressing the human NK-3 receptor and a construct that encodes the photoprotein apoaequorin were used for this assay. In the presence of the cofactor coelenterazine, apoaequorin emits a measurable luminescence that is proportional to the amount of intracellular (cytoplasmic) free calcium.
The antagonist activity of compounds of the invention is measured following pre-incubation (3 minutes) of the compound (at various concentrations) with the cells, followed by addition of the reference agonist (NKA) at a final concentration equivalent to the EC80 (3 nM) and recording of emitted light (FDSS 6000 Hamamatsu) over the subsequent 90-second period. The intensity of the emitted light is integrated using the reader software. Compound antagonist activity is measured based on the concentration-dependent inhibition of the luminescence response to the addition of Neurokinin A.

[3] = Table 2, 5 nM 3H-SB222200, CHO membranes, read-out: Competitive binding assay with human NK-3 receptor hNK-3 (Ki)
[4] = Table 3 (selectivity table), read-out: hNK-3 (Ki)

T1 sequence (P29371 whole entry): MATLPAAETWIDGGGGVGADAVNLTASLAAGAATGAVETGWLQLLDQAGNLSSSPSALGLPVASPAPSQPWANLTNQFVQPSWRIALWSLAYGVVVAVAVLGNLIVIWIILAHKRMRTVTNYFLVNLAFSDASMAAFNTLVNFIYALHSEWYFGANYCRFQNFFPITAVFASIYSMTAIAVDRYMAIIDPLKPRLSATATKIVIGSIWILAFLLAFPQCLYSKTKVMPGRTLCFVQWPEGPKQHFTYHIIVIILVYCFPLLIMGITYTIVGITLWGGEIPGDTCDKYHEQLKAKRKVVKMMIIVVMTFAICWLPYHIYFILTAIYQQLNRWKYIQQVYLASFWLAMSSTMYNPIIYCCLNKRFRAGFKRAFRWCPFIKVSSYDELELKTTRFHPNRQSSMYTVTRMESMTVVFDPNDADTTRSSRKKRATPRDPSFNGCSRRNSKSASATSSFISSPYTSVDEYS
Sequence of human NK-2 receptor (P21452 whole entry): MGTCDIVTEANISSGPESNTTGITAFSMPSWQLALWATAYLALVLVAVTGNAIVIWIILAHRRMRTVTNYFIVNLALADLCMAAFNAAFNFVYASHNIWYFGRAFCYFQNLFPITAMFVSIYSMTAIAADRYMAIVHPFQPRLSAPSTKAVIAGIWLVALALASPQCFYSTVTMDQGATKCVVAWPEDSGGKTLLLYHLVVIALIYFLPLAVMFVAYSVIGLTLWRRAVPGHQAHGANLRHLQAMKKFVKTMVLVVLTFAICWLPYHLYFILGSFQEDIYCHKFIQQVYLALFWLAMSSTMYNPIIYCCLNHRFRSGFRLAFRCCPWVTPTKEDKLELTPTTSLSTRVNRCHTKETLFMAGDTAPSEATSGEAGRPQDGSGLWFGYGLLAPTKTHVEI
Sequence of human NK-1 receptor (P25103 whole entry): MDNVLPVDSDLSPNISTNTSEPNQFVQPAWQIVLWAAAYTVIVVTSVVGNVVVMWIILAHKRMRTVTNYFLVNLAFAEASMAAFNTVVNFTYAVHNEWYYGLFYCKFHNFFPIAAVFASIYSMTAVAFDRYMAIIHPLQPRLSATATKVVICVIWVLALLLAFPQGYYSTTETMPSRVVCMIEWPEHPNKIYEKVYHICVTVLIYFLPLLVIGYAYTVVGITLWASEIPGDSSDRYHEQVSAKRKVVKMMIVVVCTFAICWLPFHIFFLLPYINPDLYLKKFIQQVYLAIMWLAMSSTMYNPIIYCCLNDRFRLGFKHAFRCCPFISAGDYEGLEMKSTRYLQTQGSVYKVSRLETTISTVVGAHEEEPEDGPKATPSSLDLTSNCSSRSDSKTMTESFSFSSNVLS

SMILES	Ki (human NK-1 receptor)	Ki (human NK-3 receptor [1]; [3])	Ki (human NK-3 receptor [1]; [4])	Exposure (% rPPB), bound drug fraction to plasma protein (plasma protein)	Ki (human NK-2 receptor)	IC50 (human NK-3 receptor [2])
Cc1nsc(-c2nnc3n2CCN(C(=O)c2cc(F)c(F)c(F)c2F)C3C)n1 (racemic) [Compound 31, (8-methyl-3-(3-methyl-1,2,4-thiadiazol-5-yl)-5,6-dihydro-[1,2,4]triazolo[4,3-a]pyrazin-7(8H)-yl)(2,3,4,5-tetrafluorophenyl)methanone]	> 30 µM	0.07 µM	0.07 µM	31%	> 30 µM	0.064 µM
CC(F)c1noc(-c2nnc3n2CCN(C(=O)c2ccc(F)cc2)[C@@H]3C)n1 (single isomer, unassigned) [Compound 45-2]	> 30 µM	0.083 µM	0.083 µM	33%	> 30 µM	0.148 µM
Cc1noc(-c2nnc3n2CCN(C(=O)c2ccc(F)cc2)[C@@H]3C)n1 [Compound 28, (R)-(4-fluorophenyl)(8-methyl-3-(3-methyl-1,2,4-oxadiazol-5-yl)-5,6-dihydro-[1,2,4]triazolo[4,3-a]pyrazin-7(8H)-yl)methanone]	> 30 µM	0.11 µM	0.11 µM	12%	> 30 µM	0.16 µM
C[C@@H]1c2nnc(-c3nc(C(F)F)ns3)n2CCN1C(=O)c1ccc(F)cc1 [Compound 42, (R)-(3-(3-(difluoromethyl)-1,2,4-thiadiazol-5-yl)-8-methyl-5,6-dihydro-[1,2,4]triazolo[4,3-a]pyrazin-7(8H)-yl)(4-fluorophenyl)methanone]	> 30 µM	0.048 µM	0.048 µM	16%	> 30 µM	0.039 µM
Cc1ccc(C(=O)N2CCn3c(-c4nc(C)ns4)nnc3[C@H]2C)cc1 [Compound 19, (R)-(8-methyl-3-(3-methyl-1,2,4-thiadiazol-5-yl)-5,6-dihydro-[1,2,4]triazolo[4,3-a]pyrazin-7(8H)-yl)(p-tolyl)methanone]	> 30 µM	0.056 µM	0.056 µM	51%	> 30 µM	0.11 µM
Cc1nsc(-c2nnc3n2CCN(C(=O)c2ccc(Cl)c(Cl)c2)C3C)n1 (racemic) [Compound 38, (3,4-dichlorophenyl)(8-methyl-3-(3-methyl-1,2,4-thiadiazol-5-yl)-5,6-dihydro-[1,2,4]triazolo[4,3-a]pyrazin-7(8H)-yl)methanone]	21 µM	0.026 µM	0.026 µM	76%	28 µM	0.034 µM
CC[C@@H]1c2nnc(-c3nc(C)ns3)n2CCN1C(=O)c1ccc(F)cc1 [Compound 22, (R)-(8-ethyl-3-(3-methyl-1,2,4-thiadiazol-5-yl)-5,6-dihydro-[1,2,4]triazolo[4,3-a]pyrazin-7(8H)-yl)(4-fluorophenyl)methanone]	> 30 µM	0.069 µM	0.069 µM	27%	> 30 µM	0.13 µM
C[C@@H]1c2nnc(-c3nc(CC(F)(F)F)no3)n2CCN1C(=O)c1ccc(F)cc1 [Compound 44, (R)-(4-fluorophenyl)(8-methyl-3-(3-(2,2,2-trifluoroethyl)-1,2,4-oxadiazol-5-yl)-5,6-dihydro-[1,2,4]triazolo[4,3-a]pyrazin-7(8H)-yl)methanone]	> 30 µM	0.045 µM	0.045 µM	31%	> 30 µM	0.204 µM
Cc1nsc(-c2nnc3n2CCN(C(=O)c2ccc(F)c(F)c2)C3C)n1 (racemic) [Compound 32]	> 30 µM	0.059 µM	0.059 µM	25%	> 30 µM	0.044 µM
Cc1nsc(-c2nnc3n2CCN(C(=O)c2cccc(F)c2)[C@@H]3C)n1 [Compound 15, (R)-(3-fluorophenyl)(8-methyl-3-(3-methyl-1,2,4-thiadiazol-5-yl)-5,6-dihydro-[1,2,4]triazolo[4,3-a]pyrazin-7(8H)-yl)methanone]	> 30 µM	0.045 µM	0.045 µM	20%	> 30 µM	0.05 µM
Cc1nsc(-c2nnc3n2CCN(C(=O)c2ccc(F)c(Cl)c2)[C@@H]3C)n1 [Compound 6, (R)-(3-chloro-4-fluorophenyl)(8-methyl-3-(3-methyl-1,2,4-thiadiazol-5-yl)-5,6-dihydro-[1,2,4]triazolo[4,3-a]pyrazin-7(8H)-yl)methanone]	22.1 µM	0.024 µM	0.024 µM	53%	25 µM	0.03 µM
Cc1nsc(-c2nnc3n2CCN(C(=O)c2ccc(F)cc2)C3C)n1 (racemic) [Compound 14, (4-fluorophenyl)(8-methyl-3-(3-methyl-1,2,4-thiadiazol-5-yl)-5,6-dihydro-[1,2,4]triazolo[4,3-a]pyrazin-7(8H)-yl)methanone]	> 30 µM	0.042 µM	0.042 µM	21%	> 30 µM	0.057 µM
Cc1nsc(-c2nnc3n2CCN(C(=O)c2cc(F)c(F)c(F)c2F)[C@@H]3C)n1 [Compound 10, (R)-(8-methyl-3-(3-methyl-1,2,4-thiadiazol-5-yl)-5,6-dihydro-[1,2,4]triazolo[4,3-a]pyrazin-7(8H)-yl)(2,3,4,5-tetrafluorophenyl)methanone]	> 30 µM	0.031 µM	0.031 µM	30%	49 µM	0.056 µM
CCc1nsc(-c2nnc3n2CCN(C(=O)c2ccc(F)cc2)C3C)n1 (racemic) [Compound 39, (3-(3-ethyl-1,2,4-thiadiazol-5-yl)-8-methyl-5,6-dihydro-[1,2,4]triazolo[4,3-a]pyrazin-7(8H)-yl)(4-fluorophenyl)methanone]	> 30 µM	0.028 µM	0.028 µM	43%	> 30 µM	0.032 µM
